Values quoted from earlier work in patent US12201674B2 (EDIX SA, priority 2018, dated 2025).

Tests used:
[1] = molecular target: human somatostatin receptors (SSTR) 2 (Homo sapiens, UniProt P30874)
SSTR 1 = SSTR 1 (Homo sapiens, UniProt P30872)
SSTR 3 = SSTR 3 (Homo sapiens, UniProt P32745)
SSTR 4 = SSTR 4 (Homo sapiens, UniProt P31391)
Sequence of SSTR 4 (P31391 whole entry): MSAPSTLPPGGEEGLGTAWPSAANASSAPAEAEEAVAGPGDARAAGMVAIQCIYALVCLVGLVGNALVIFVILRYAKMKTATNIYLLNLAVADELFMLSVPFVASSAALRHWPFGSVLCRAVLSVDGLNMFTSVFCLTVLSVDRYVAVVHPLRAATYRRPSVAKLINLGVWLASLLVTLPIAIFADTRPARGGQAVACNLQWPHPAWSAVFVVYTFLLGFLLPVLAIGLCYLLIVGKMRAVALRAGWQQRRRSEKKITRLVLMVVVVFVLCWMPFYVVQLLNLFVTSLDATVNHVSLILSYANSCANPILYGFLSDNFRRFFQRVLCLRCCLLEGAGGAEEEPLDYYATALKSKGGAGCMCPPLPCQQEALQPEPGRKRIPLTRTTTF

Sequence of SSTR 1 (P30872 whole entry): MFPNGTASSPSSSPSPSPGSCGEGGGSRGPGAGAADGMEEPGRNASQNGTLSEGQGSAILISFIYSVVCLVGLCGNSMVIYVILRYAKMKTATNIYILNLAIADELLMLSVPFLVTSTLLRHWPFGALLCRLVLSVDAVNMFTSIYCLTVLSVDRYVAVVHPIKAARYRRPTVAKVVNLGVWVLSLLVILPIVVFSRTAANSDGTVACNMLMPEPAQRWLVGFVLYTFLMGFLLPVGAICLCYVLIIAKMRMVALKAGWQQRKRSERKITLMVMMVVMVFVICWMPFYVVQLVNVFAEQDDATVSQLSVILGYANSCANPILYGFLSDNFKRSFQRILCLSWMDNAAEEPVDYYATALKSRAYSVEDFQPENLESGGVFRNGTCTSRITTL
Sequence of human somatostatin receptors (SSTR) 2 (P30874 whole entry): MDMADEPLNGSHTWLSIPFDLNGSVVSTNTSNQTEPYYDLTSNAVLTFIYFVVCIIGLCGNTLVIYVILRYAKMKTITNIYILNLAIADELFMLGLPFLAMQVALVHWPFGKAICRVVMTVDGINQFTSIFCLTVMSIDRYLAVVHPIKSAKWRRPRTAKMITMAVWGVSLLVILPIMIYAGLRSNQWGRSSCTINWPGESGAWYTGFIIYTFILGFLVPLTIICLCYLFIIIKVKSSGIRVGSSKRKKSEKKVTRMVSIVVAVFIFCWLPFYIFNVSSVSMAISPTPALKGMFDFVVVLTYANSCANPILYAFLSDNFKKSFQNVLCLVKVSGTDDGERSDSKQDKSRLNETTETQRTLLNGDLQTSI
Sequence of SSTR 3 (P32745 whole entry): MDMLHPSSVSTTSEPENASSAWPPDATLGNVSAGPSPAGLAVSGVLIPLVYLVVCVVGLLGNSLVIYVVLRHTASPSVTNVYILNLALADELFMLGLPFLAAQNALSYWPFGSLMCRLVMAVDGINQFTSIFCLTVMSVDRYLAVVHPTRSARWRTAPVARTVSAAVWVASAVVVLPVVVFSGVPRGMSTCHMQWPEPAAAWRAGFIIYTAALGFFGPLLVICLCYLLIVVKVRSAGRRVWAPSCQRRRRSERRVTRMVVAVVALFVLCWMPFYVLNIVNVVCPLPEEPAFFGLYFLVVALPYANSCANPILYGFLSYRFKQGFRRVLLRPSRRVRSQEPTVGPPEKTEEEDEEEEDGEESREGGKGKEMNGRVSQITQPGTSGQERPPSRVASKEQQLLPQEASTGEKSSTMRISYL

Question: For `CC(C)[C@@H]1NC(=O)[C@H](CCCCN)NC(=O)[C@@H](Cc2c[nH]c3ccccc23)NC(=O)[C@H](Cc2ccc(O)cc2)NC(=O)[C@@H](NC(=O)[C@H](N)Cc2ccc3ccccc3c2)CSSC[C@@H](C(=O)N[C@H](C(N)=O)[C@@H](C)O)NC1=O` [lanreotide], which affinity [1] is on record?
Answer: The affinity was “high affinity”.

Question: What about the affinity (SSTR 1) of the same molecule?
Answer: The affinity was “low affinity”.

Question: And the affinity (SSTR 3)?
Answer: The affinity was “low affinity”.

Question: What about the affinity (SSTR 4) of the same molecule?
Answer: Its affinity is “low affinity”.
